Results reported in patent US20250230193A1, “CYCLIC COMPOUND HAVING SELECTIVE KRAS INHIBITORY EFFECT ON HRAS AND NRAS” (CHUGAI SEIYAKU KABUSHIKI KAISHA, priority 2022, published 2025).

Key:
[1] = molecular target: GDP-bound HRAS wild-type protein (Homo sapiens, UniProt P01112); test: Binding to HRAS by surface plasmon resonance (SPR), Single Cycle Kinetics; settings: KD ratio HRAS/KRAS, class symbols
[2] = molecular target: GDP-bound NRAS wild-type protein (Homo sapiens, UniProt P01111); test: Binding to NRAS by surface plasmon resonance (SPR), Single Cycle Kinetics; settings: KD ratio NRAS/KRAS, class symbols
Sequence of GDP-bound NRAS wild-type protein (P01111 whole entry): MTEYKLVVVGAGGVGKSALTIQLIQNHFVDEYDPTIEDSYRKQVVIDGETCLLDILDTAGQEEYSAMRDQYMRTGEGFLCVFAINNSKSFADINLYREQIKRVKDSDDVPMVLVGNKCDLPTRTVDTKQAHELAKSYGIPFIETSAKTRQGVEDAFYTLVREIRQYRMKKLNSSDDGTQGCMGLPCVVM

Sequence of GDP-bound HRAS wild-type protein (P01112 whole entry): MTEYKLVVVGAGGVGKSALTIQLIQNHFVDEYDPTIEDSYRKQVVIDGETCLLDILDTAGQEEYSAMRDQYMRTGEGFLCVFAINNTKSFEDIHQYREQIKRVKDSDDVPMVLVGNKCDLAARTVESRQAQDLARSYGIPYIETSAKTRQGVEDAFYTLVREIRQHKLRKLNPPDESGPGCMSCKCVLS

SMILES	HRAS/KRAS (ratio of KD value with respect to GDP-bound HRAS wild-type protein to KD value with respect to KRAS) [1]	NRAS/KRAS (ratio of KD value with respect to GDP-bound NRAS wild-type protein to KD value with respect to KRAS) [2]
CCC[C@H]1C(=O)N[C@@H]([C@@H](C)CC)C(=O)N(C2CC2)CC(=O)N(C)[C@H]2C/C=C\CCN(C2=O)[C@@H](Cc2ccc(C)cc2)C(=O)N(C)CC(=O)N[C@@H](CCc2ccc(C(F)(F)F)c(OC)c2)C(=O)N2C[C@H](OCC)C[C@H]2C(=O)NC2(CC(C)(C)C2)C(=O)N(C)[C@@H](CC2CC2)C(=O)N(C)[C@H](C(=O)N(C)C)CC(=O)N1C [PP2803]	A (a compound having 10 or more and less than 20 is denoted as A)	A (a compound having 10 or more and less than 20 is denoted as A)
CC[C@H](C)[C@@H]1NC(=O)[C@H](CC2CC2)N(C)C(=O)C[C@@H](C(=O)N(C)C)N(C)C(=O)[C@H](C2CCCC2)N(C)C(=O)C2(CC(C)(C)C2)NC(=O)[C@@H]2C[C@@H](F)CN2C(=O)[C@H](CCc2cc(F)c(C(F)(F)F)c(F)c2)NC(=O)CN(C)C(=O)[C@H](Cc2ccc(C)cc2)N2CC/C=C\C[C@@H](C2=O)N(C)C(=O)CN(C)C1=O [PP2804]	A (a compound having 10 or more and less than 20 is denoted as A)	A (a compound having 10 or more and less than 20 is denoted as A)
CCC[C@H]1C(=O)N[C@@H]([C@@H](C)CC)C(=O)N(C2CC2)CC(=O)N(C)[C@H]2C/C=C\CCN(C2=O)[C@@H](Cc2ccc(C)cc2)C(=O)N(C)CC(=O)N[C@@H](CCc2ccc(Cl)c(Cl)c2)C(=O)N2C[C@H](OCC)C[C@H]2C(=O)NC2(CC(C)(C)C2)C(=O)N(C)[C@@H](CC2CC2)C(=O)N(C)[C@H](C(=O)N(C)C)CC(=O)N1C [PP2805]	A (a compound having 10 or more and less than 20 is denoted as A)	A (a compound having 10 or more and less than 20 is denoted as A)
CCCC[C@H]1C(=O)N[C@@H]([C@@H](C)CC)C(=O)N(C)CC(=O)N(C)[C@H]2C/C=C\CCN(C2=O)[C@@H](Cc2ccc(C(F)(F)F)cc2)C(=O)N(C)CC(=O)N[C@@H](CCc2cc(F)c(C(F)(F)F)c(F)c2)C(=O)N2C[C@H](OCC)C[C@H]2C(=O)NC2(CC(C)(C)C2)C(=O)N(C)[C@@H](C2CCCC2)C(=O)N(C)[C@H](C(=O)N(C)CC)CC(=O)N1C [PP2806]	A (a compound having 10 or more and less than 20 is denoted as A)	A (a compound having 10 or more and less than 20 is denoted as A)
CCC[C@H]1C(=O)N[C@@H]([C@@H](C)CC)C(=O)N(C)CC(=O)N(C)[C@H]2C/C=C\CCN(C2=O)[C@@H](Cc2ccc(C(F)(F)F)cc2)C(=O)N(C)CC(=O)N[C@@H](CCc2cc(F)c(C(F)(F)F)c(F)c2)C(=O)N2C[C@H](OCC)C[C@H]2C(=O)NC2(CC(C)(C)C2)C(=O)N(C)[C@@H](CC2CC2)C(=O)N(C)[C@H](C(=O)N(C)C)CC(=O)N1C [PP2807]	A (a compound having 10 or more and less than 20 is denoted as A)	AA (a compound having 20 or more is denoted as AA)
CCCC[C@H]1C(=O)N[C@@H]([C@@H](C)CC)C(=O)N(C)CC(=O)N(C)[C@H]2C/C=C\CCN(C2=O)[C@@H](Cc2ccc(C)cc2)C(=O)N(C)CC(=O)N[C@@H](CCc2cc(F)c(C(F)(F)F)c(F)c2)C(=O)N2C[C@H](OCC)C[C@H]2C(=O)NC2(CC(C)(C)C2)C(=O)N(C)[C@@H](C2CCCC2)C(=O)N(C)[C@H](C(=O)N(C)CC)CC(=O)N1C [PP2808]	B (a compound having 3 or more and less than 10 is denoted as B)	B (a compound having 3 or more and less than 10 is denoted as B)
CCC[C@H]1C(=O)N[C@@H]([C@@H](C)CC)C(=O)N(C)CC(=O)N(C)[C@H]2C/C=C\CCN(C2=O)[C@@H](Cc2ccc(C(F)(F)F)cc2)C(=O)N(C)CC(=O)N[C@@H](CCc2ccc(C(F)(F)F)c(OC)c2)C(=O)N2C[C@H](OCC)C[C@H]2C(=O)NC2(CC(C)(C)C2)C(=O)N(C)[C@@H](CC2CC2)C(=O)N(C)[C@H](C(=O)N(C)C)CC(=O)N1C [PP2809]	A (a compound having 10 or more and less than 20 is denoted as A)	A (a compound having 10 or more and less than 20 is denoted as A)
CCO[C@@H]1C[C@H]2C(=O)N(C)C3(CC(C)(C)C3)C(=O)N(C)[C@@H](C(CC)CC)C(=O)N(C)[C@H](C(=O)N(C)C)CC(=O)N(C)[C@@H](COC)C(=O)N[C@@H]([C@@H](C)CC)C(=O)N(C)CC(=O)N(C)[C@H]3C/C=C\CCN(C3=O)[C@@H](Cc3ccc(C)cc3)C(=O)N(C)CC(=O)N[C@@H](CCc3ccc(Cl)c(Cl)c3)C(=O)N2C1 [PP2810]	A (a compound having 10 or more and less than 20 is denoted as A)	AA (a compound having 20 or more is denoted as AA)
CCC[C@H]1C(=O)N[C@@H]([C@@H](C)CC)C(=O)N(C)CC(=O)N(C)[C@H]2C/C=C\CCN(C2=O)[C@@H](Cc2ccc(C(F)(F)F)cc2)C(=O)N(C)CC(=O)N[C@@H](CCc2ccc(Cl)c(Cl)c2)C(=O)N2C[C@H](OCC)C[C@H]2C(=O)NC2(CC(C)(C)C2)C(=O)N(C)[C@@H](CC2CC2)C(=O)N(C)[C@H](C(=O)N(C)C)CC(=O)N1C [PP2811]	A (a compound having 10 or more and less than 20 is denoted as A)	A (a compound having 10 or more and less than 20 is denoted as A)
CCCO[C@@H]1C[C@H]2C(=O)N(C)C3(CC(C)(C)C3)C(=O)N(C)[C@@H](C(CC)CC)C(=O)N(C)[C@H](C(=O)N(C)C)CC(=O)N(C)[C@@H](COC)C(=O)N[C@@H]([C@@H](C)CC)C(=O)N(C)CC(=O)N(C)[C@H]3C/C=C\CCN(C3=O)[C@@H](Cc3ccc(C)cc3)C(=O)N(C)CC(=O)N[C@@H](CCc3ccc(Cl)c(Cl)c3)C(=O)N2C1 [PP2812]	A (a compound having 10 or more and less than 20 is denoted as A)	AA (a compound having 20 or more is denoted as AA)
CCC[C@H]1C(=O)N[C@@H]([C@@H](C)CC)C(=O)N(C2CC2)CC(=O)N(C)[C@H]2C/C=C\CCN(C2=O)[C@@H](Cc2ccc(C(F)(F)F)cc2)C(=O)N(C)CC(=O)N[C@@H](CCc2cc(F)c(C(F)(F)F)c(F)c2)C(=O)N2C[C@H](OCC)C[C@H]2C(=O)NC2(CC(C)(C)C2)C(=O)N(C)[C@@H](CC2CC2)C(=O)N(C)[C@H](C(=O)N(C)C)CC(=O)N1C [PP2813]	A (a compound having 10 or more and less than 20 is denoted as A)	AA (a compound having 20 or more is denoted as AA)
